We go through one molecule from patent US20200017495A1, “NOVEL HETEROCYCLIC COMPOUNDS AND THEIR USE IN PREVENTING OR TREATING BACTERIAL INFECTIONS” (priority 2017, published 2020).

Test in all cases: MIC of compounds alone and combined with antibacterials, broth microdilution (CLSI)
What all share (assay type): cell-based
For orientation: Dilution methods test growth across graded concentrations, often in twofold steps.

Assay [1] has as its system Citrobacter koseri (CKR) isolates. The settings on record: Citrobacter koseri, read-out: MIC. Put shortly:
(§1)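 Antibacterial MICs in combination were determined at every compound concentration tested, alongside compound MICs alone. Bacteria grew in cation-adjusted Mueller-Hinton broth starting from 5.10^5 CFU/mL, incubated at 35° C for 16-20 h, and endpoints were the lowest concentrations with no visible growth.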

Assay [2] deals with Morganella morganii (MMO) isolates. The settings on record: Morganella morganii, genotype DHA-1, read-out: MIC. Put shortly: as §1
Assay [3] has as its system Enterobacter cloacae (ECL) isolates. The settings on record: Enterobacter cloacae, read-out: MIC. Put shortly:
as §1

For assay [4], the system named is Escherichia coli (ECO) isolates. The settings on record: Escherichia coli, read-out: MIC. Put shortly:
as §1

Assay [5] has as its system Enterobacter aerogenes (EAE) isolates. The note with it: Klebsiella aerogenes, strain EAE 49469; genotype AmpC; read-out: MIC. The essentials: as §1

Read-outs that look alike come from different tables or passages of the source. Some results are limits rather than exact numbers.

In the case of `COCC1=C(C(=O)O)N2C(=O)[C@@H](NC(=O)/C(=N\OC)c3csc(N)n3)[C@H]2SC1` [POD, Cefpodoxime], the MIC in assay [1] (strain CKO ROU, genotype TEM-1, SHV-12, CTX-M-15, OXA-1, OXA-48) amounted to 4 µg/mL; in assay [1] (strain CKO UFR150, genotype TEM-1, OXA-48), 16 µg/mL; in assay [2] (strain MMO UFR243), 64 µg/mL; in assay [2] (strain MMO UFR244) it was 16 µg/mL; in assay [2] (strain MMO UFR245), 64 µg/mL; in assay [2] (strain MMO UFR246) it was 64 µg/mL. The MIC is 64 µg/mL in assay [2] (strain MMO UFR247); more than 512 µg/mL in assay [3] (strain ECL P99, genotype AmpC); 128 µg/mL in assay [3] (strain ECL UFR12, genotype CTX-M-9, OXA-48); 16 µg/mL in assay [3] (strain ECL UFR194, genotype OXA-48); 2 µg/mL in assay [4] (strain ECO 4133, genotype TEM-30, OXA-1); 4 µg/mL in assay [4] (strain ECO 5302, genotype TEM-1, OXA-1). For the same molecule, the MIC in assay [4] (strain ECO 131119, genotype TEM-1, OXA-48) is 1 µg/mL; in assay [4] (strain ECO 190317, genotype TEM-1, SHV-12, CTX-M-15, OXA-1) it was more than 512 µg/mL; in assay [4] (strain ECO RGN238, genotype OXA-1), 2 µg/mL; in assay [4] (strain ECO UFR15, genotype TEM-1, OXA-48), 2 µg/mL; in assay [4] (strain ECO UFR86, genotype ompC-, ompF-), 4 µg/mL; in assay [4] (strain ECO UFR211, genotype TEM-24), 32 µg/mL. The MIC in assay [5] was more than 128 µg/mL.

By MIC is commonly meant the least concentration at which growth counts as inhibited.
